Converted amounts (≈) assume the structure as drawn.

Holding throughout (format): functional
Assay [1] has as its system Staphylococcus aureus. In words: Antibacterial activity against methicillin-resistant Staphylococcus aureus assessed as bacterial growth inhibition incubated for 24 hrs by CLSI based two serial dilution assay.
Assay [2] concerns Enterococcus faecalis. Nature of the assay: Antibacterial activity against Enterococcus faecalis assessed as bacterial growth inhibition incubated for 24 hrs by CLSI based two serial dilution assay.
The subject of assay [3] is Staphylococcus aureus. Nature of the assay: Antibacterial activity against Staphylococcus aureus assessed as bacterial growth inhibition incubated for 24 hrs by CLSI based two serial dilution assay.
For assay [4], the system named is Staphylococcus aureus. In words: Antibacterial activity against Staphylococcus aureus 25923 assessed as bacterial growth inhibition incubated for 24 hrs by CLSI based two serial dilution assay.
The test system of assay [5] is Staphylococcus aureus. In words: Antibacterial activity against Staphylococcus aureus 29213 assessed as bacterial growth inhibition incubated for 24 hrs by CLSI based two serial dilution assay.
The test system of assay [6] is Klebsiella pneumoniae. In words: Antibacterial activity against Klebsiella pneumoniae assessed as bacterial growth inhibition incubated for 24 hrs by CLSI based two serial dilution assay.
Assay [7] relates to Escherichia coli. In words: Antibacterial activity against Escherichia coli assessed as bacterial growth inhibition incubated for 24 hrs by CLSI based two serial dilution assay.
Assay [8] has as its system Escherichia coli. Nature of the assay: Antibacterial activity against Escherichia coli 25922 assessed as bacterial growth inhibition incubated for 24 hrs by CLSI based two serial dilution assay.
The test system of assay [9] is Pseudomonas aeruginosa. Nature of the assay: Antibacterial activity against Pseudomonas aeruginosa assessed as bacterial growth inhibition incubated for 24 hrs by CLSI based two serial dilution assay.
The subject of assay [10] is Pseudomonas aeruginosa. In words: Antibacterial activity against Pseudomonas aeruginosa ATCC 27853 assessed as bacterial growth inhibition incubated for 24 hrs by CLSI based two serial dilution assay.
The subject of assay [11] is Acinetobacter baumannii. Nature of the assay: Antibacterial activity against Acinetobacter baumannii assessed as bacterial growth inhibition incubated for 24 hrs by CLSI based two serial dilution assay.
Assay [12] relates to Candida albicans. Nature of the assay: Antifungal activity against Candida albicans assessed as inhibition of fungal growth incubated for 24 hrs by CLSI based two serial dilution assay.
In assay [13] the test system is Candida albicans. In words: Antifungal activity against Candida albicans ATCC 90023 assessed as inhibition of fungal growth incubated for 24 hrs by CLSI based two serial dilution assay.
Assay [14] deals with Candida tropicalis. In words: Antifungal activity against Candida tropicalis assessed as inhibition of fungal growth incubated for 24 hrs by CLSI based two serial dilution assay.
In assay [15] the test system is Candida parapsilosis. In words: Antifungal activity against Candida parapsilosis ATCC 22019 assessed as inhibition of fungal growth incubated for 24 hrs by CLSI based two serial dilution assay. The conditions noted are these: Lodderomyces parapsilosis.
Assay [16] deals with Aspergillus fumigatus. Nature of the assay: Antifungal activity against Aspergillus fumigatus assessed as inhibition of fungal growth incubated for 24 hrs by CLSI based two serial dilution assay.

In the case of `CCCCN1C(=O)/C(=N\Nc2nccs2)c2ccc(Cl)cc21`, the MIC in [1] worked out at 0.5 µM (≈ 0.167 µg/mL); in [2], 2 µM (≈ 0.67 µg/mL); in [3] it was 1 µM (≈ 0.335 µg/mL); in [4], 0.5 µM (≈ 0.167 µg/mL); in [5], 4 µM (≈ 1.34 µg/mL); in assay [6], 0.5 µM (≈ 0.167 µg/mL). Moreover, the MIC was 1 µM (≈ 0.335 µg/mL) in assay [7]; 4 µM (≈ 1.34 µg/mL) in [8]; 0.5 µM (≈ 0.167 µg/mL) in assay [9]; 4 µM (≈ 1.34 µg/mL) in [10]; 0.5 µM (≈ 0.167 µg/mL) in assay [11]; 0.5 µM (≈ 0.167 µg/mL) in assay [12]. Besides, the MIC in assay [13] was 2 µM (≈ 0.67 µg/mL); in assay [14], 1 µM (≈ 0.335 µg/mL); in assay [15], 0.5 µM (≈ 0.167 µg/mL); in [16], 1 µM (≈ 0.335 µg/mL).
Turning to `CCCCN1C(=O)/C(=N\Nc2nccs2)c2c(Cl)cccc21`, the MIC was 256 µM (≈ 85.7 µg/mL) in [1]; 128 µM (≈ 42.9 µg/mL) in [2]; 512 µM (≈ 171 µg/mL) in assay [3]; 512 µM (≈ 171 µg/mL) in [4]; 1 µM (≈ 0.335 µg/mL) in assay [5]; 1 µM (≈ 0.335 µg/mL) in [6]. For the same molecule, the MIC was determined as 256 µM (≈ 85.7 µg/mL) in [7]; 512 µM (≈ 171 µg/mL) in assay [8]; 1 µM (≈ 0.335 µg/mL) in assay [9]; 128 µM (≈ 42.9 µg/mL) in assay [10]; 256 µM (≈ 85.7 µg/mL) in [11]; 256 µM (≈ 85.7 µg/mL) in assay [12]. Further, the MIC in assay [13] worked out at 512 µM (≈ 171 µg/mL); in [14], 128 µM (≈ 42.9 µg/mL); in assay [15] it was 16 µM (≈ 5.36 µg/mL); in assay [16], 256 µM (≈ 85.7 µg/mL).
Regarding `CCCCN1C(=O)/C(=N\Nc2nccs2)c2ccc(Br)cc21`, the MIC in assay [1] came to 1 µM (≈ 0.379 µg/mL); in assay [2], 4 µM (≈ 1.52 µg/mL); in assay [3], 1 µM (≈ 0.379 µg/mL); in assay [4] it was 0.5 µM (≈ 0.19 µg/mL); in assay [5] it was 4 µM (≈ 1.52 µg/mL); in assay [6] it was 0.5 µM (≈ 0.19 µg/mL). In addition, the MIC in assay [7] was 0.5 µM (≈ 0.19 µg/mL); in assay [8], 16 µM (≈ 6.07 µg/mL); in assay [9] it was 1 µM (≈ 0.379 µg/mL); in [10] it was 0.5 µM (≈ 0.19 µg/mL); in assay [11] it was 0.5 µM (≈ 0.19 µg/mL); in [12] it was 0.5 µM (≈ 0.19 µg/mL). Also, the MIC in [13] was 1 µM (≈ 0.379 µg/mL); in assay [14] it was 1 µM (≈ 0.379 µg/mL); in assay [15] it was 0.5 µM (≈ 0.19 µg/mL); in [16], 0.5 µM (≈ 0.19 µg/mL).
Turning to `O=C1/C(=N\Nc2nccs2)c2ccccc2N1Cc1ccc(F)cc1`, the MIC in [1] is 128 µM (≈ 45.1 µg/mL); in assay [2], 2 µM (≈ 0.705 µg/mL); in assay [3] it was 64 µM (≈ 22.6 µg/mL); in assay [4], 4 µM (≈ 1.41 µg/mL); in assay [5], 4 µM (≈ 1.41 µg/mL); in assay [6] it was 16 µM (≈ 5.64 µg/mL). Further, the MIC in assay [7] turned out to be 16 µM (≈ 5.64 µg/mL); in assay [8] it was 16 µM (≈ 5.64 µg/mL); in [9], 16 µM (≈ 5.64 µg/mL); in assay [10] it was 4 µM (≈ 1.41 µg/mL); in [11], 16 µM (≈ 5.64 µg/mL); in assay [12] it was 32 µM (≈ 11.3 µg/mL). Also, the minimum inhibitory concentration (MIC) came out at 128 µM (≈ 45.1 µg/mL) in [13], 32 µM (≈ 11.3 µg/mL) in [14], 64 µM (≈ 22.6 µg/mL) in [15] and 128 µM (≈ 45.1 µg/mL) in assay [16].
Turning to `CCCCN1C(=O)/C(=N\Nc2nccs2)c2cc(F)ccc21`, the MIC in [1] came to 2 µM (≈ 0.637 µg/mL); in assay [2], 4 µM (≈ 1.27 µg/mL); in [3] it was 4 µM (≈ 1.27 µg/mL); in [4], 4 µM (≈ 1.27 µg/mL); in assay [5], 1 µM (≈ 0.318 µg/mL); in assay [6] it was 1 µM (≈ 0.318 µg/mL). The MIC is 1 µM (≈ 0.318 µg/mL) in assay [7]; 1 µM (≈ 0.318 µg/mL) in [8]; 1 µM (≈ 0.318 µg/mL) in [9]; 4 µM (≈ 1.27 µg/mL) in assay [10]; 1 µM (≈ 0.318 µg/mL) in assay [11]; 1 µM (≈ 0.318 µg/mL) in [12]. For the same molecule, the MIC worked out at 1 µM (≈ 0.318 µg/mL) in assay [13], 4 µM (≈ 1.27 µg/mL) in assay [14], 1 µM (≈ 0.318 µg/mL) in assay [15] and 4 µM (≈ 1.27 µg/mL) in [16].
In the case of `CCCCN1C(=O)/C(=N\Nc2nccs2)c2cc(Br)ccc21`, the MIC in [1] amounted to 16 µM (≈ 6.07 µg/mL); in [2] it was 32 µM (≈ 12.1 µg/mL); in [3], 64 µM (≈ 24.3 µg/mL); in assay [4], 32 µM (≈ 12.1 µg/mL); in assay [5], 16 µM (≈ 6.07 µg/mL); in assay [6], 256 µM (≈ 97.1 µg/mL). Also, the MIC in [7] was 16 µM (≈ 6.07 µg/mL); in assay [8], 16 µM (≈ 6.07 µg/mL); in [9] it was 8 µM (≈ 3.03 µg/mL); in assay [10], 256 µM (≈ 97.1 µg/mL); in assay [11] it was 16 µM (≈ 6.07 µg/mL); in assay [12], 32 µM (≈ 12.1 µg/mL). The MIC in [13] is 64 µM (≈ 24.3 µg/mL); in [14], 64 µM (≈ 24.3 µg/mL); in assay [15], 32 µM (≈ 12.1 µg/mL); in [16], 16 µM (≈ 6.07 µg/mL).
Regarding `CCCCN1C(=O)/C(=N\Nc2nccs2)c2ccc(F)cc21`, the MIC is 4 µM (≈ 1.27 µg/mL) in assay [1]; 32 µM (≈ 10.2 µg/mL) in assay [2]; 4 µM (≈ 1.27 µg/mL) in assay [3]; 4 µM (≈ 1.27 µg/mL) in [4]; 4 µM (≈ 1.27 µg/mL) in assay [5]; 2 µM (≈ 0.637 µg/mL) in assay [6]. In addition, the MIC came to 2 µM (≈ 0.637 µg/mL) in [7]; 4 µM (≈ 1.27 µg/mL) in assay [8]; 1 µM (≈ 0.318 µg/mL) in [9]; 2 µM (≈ 0.637 µg/mL) in assay [10]; 1 µM (≈ 0.318 µg/mL) in assay [11]; 2 µM (≈ 0.637 µg/mL) in assay [12]. Besides, the MIC was 4 µM (≈ 1.27 µg/mL) in assay [13], 32 µM (≈ 10.2 µg/mL) in assay [14], 1 µM (≈ 0.318 µg/mL) in assay [15] and 2 µM (≈ 0.637 µg/mL) in assay [16].

The term MIC denotes the lowest concentration that inhibits growth of the organism.

The record behind these values is ChEMBL document CHEMBL5370535, “Thiazolyl hydrazineylidenyl indolones as unique potential multitargeting broad-spectrum antimicrobial agents” (Eur J Med Chem, 2023).
